Tests used:
Human plasma kallikrein = Human plasma kallikrein (Homo sapiens (Human), UniProt P03952); assay: Kallikrein Assay (fluorogenic substrate Acetyl-K-P-R-AFC); assay type: biochemical; details: Plasma Kallikrein (PKal)
Summary of the method: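 Ki is derived from IC50 with the Cheng-Prusoff equation, and IC50 from the inflection point of a four-parameter logistic curve. The rate of AFC release is read with 0.5 nM purified enzyme and […] substrate at room temperature or 37 °C.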

human Factor XIa = human Factor XIa (Homo sapiens (Human), UniProt P03951); assay: Factor XIa Assay (fluorogenic substrate GPR-AFC); assay type: biochemical; details: Factor XIa (FXIa)
human Factor XIa, sequence (P03951 388-625 limits assumed): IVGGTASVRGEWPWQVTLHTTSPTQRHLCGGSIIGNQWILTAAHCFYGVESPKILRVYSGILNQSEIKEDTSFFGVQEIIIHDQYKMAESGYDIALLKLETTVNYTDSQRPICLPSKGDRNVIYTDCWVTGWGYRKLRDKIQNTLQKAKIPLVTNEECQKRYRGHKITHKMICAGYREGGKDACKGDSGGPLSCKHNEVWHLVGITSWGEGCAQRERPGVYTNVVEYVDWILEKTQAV
human Factor XIa, sequence (P03951 19-387 partner limits assumed): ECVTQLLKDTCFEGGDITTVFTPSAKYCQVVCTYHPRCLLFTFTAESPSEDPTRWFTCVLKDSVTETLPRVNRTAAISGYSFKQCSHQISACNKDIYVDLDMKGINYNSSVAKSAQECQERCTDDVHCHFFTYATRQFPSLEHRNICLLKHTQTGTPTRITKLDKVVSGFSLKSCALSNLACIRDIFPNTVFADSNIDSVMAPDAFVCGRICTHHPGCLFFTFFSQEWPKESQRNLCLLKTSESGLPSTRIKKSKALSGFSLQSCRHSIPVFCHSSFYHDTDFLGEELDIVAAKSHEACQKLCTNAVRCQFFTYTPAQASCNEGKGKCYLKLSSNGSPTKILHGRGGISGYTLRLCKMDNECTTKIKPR

Human plasma kallikrein, sequence (P03952 391-638): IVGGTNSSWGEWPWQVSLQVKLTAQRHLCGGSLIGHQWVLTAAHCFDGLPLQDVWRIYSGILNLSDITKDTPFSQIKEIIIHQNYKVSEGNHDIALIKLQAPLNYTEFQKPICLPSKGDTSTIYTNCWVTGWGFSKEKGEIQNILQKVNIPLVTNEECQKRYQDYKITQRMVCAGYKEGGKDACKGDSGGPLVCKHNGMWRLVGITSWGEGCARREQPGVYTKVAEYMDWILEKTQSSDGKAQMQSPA
Human plasma kallikrein, sequence (P03952 20-390 partner): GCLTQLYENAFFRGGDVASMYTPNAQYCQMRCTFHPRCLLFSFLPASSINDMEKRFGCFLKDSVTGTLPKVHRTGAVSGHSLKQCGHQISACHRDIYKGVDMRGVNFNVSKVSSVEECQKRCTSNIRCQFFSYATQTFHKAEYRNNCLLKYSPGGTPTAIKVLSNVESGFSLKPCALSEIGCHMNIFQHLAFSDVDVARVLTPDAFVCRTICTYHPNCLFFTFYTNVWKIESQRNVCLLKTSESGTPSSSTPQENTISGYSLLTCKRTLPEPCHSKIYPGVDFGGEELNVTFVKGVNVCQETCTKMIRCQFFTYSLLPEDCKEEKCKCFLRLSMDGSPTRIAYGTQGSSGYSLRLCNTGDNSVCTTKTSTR

Structure (SMILES)	IC50 (Human plasma kallikrein) [nM]	IC50 (human Factor XIa) [nM]
Cc1ncc(-c2c(C(F)F)ccc(Cl)c2F)nc1C(=O)Nc1cnn(C(C)c2ncc(N3C[C@H]4C[C@H]4C3=O)c(C)c2N)c1 (single isomer, unassigned) [Example 118, N-(1-((R or S)-1-(3-Amino-4-methyl-5-((1R,5S)-2-oxo-3-azabicyclo[3.1.0]hexan-3-yl)pyridin-2-yl)ethyl)-1H-pyrazol-4-yl)-6-(3-chloro-6-(difluoromethyl)-2-fluorophenyl)-3-methylpyrazine-2-carboxamide]	1	7570
Cc1cc(C(C)n2cc(NC(=O)c3nc(-c4c(C(F)F)ccc(Cl)c4F)cnc3C)cn2)cnc1N1C[C@H]2C[C@H]2C1=O (single isomer, unassigned) [Example 119, 6-(3-Chloro-6-(difluoromethyl)-2-fluorophenyl)-3-methyl-N-(1-((S or R)-1-(5-methyl-6-((1R,5S)-2-oxo-3-azabicyclo[3.1.0]hexan-3-yl)pyridin-3-yl)ethyl)-1H-pyrazol-4-yl)pyrazine-2-carboxamide]	0.6	782
Cc1cc(C(C)n2cc(NC(=O)c3cc(-c4c(C(F)F)ccc(Cl)c4F)nnc3C)cn2)cnc1N1C[C@H]2C[C@H]2C1=O (single isomer, unassigned) [Example 121, 6-(3-Chloro-6-(difluoromethyl)-2-fluorophenyl)-3-methyl-N-(1-((S or R)-1-(5-methyl-6-((1R,5S)-2-oxo-3-azabicyclo[3.1.0]hexan-3-yl)pyridin-3-yl)ethyl)-1H-pyrazol-4-yl)pyridazine-4-carboxamide]	4.5	> 10000
Cc1cc(C(C)n2cc(NC(=O)c3cc(-c4c(C(F)F)ccc(Cl)c4F)nnc3C)cn2)cnc1N1C[C@H]2C[C@H]2C1=O (single isomer, unassigned) [Example 122, 6-(3-Chloro-6-(difluoromethyl)-2-fluorophenyl)-3-methyl-N-(1-((R or S)-1-(5-methyl-6-((1R,5S)-2-oxo-3-azabicyclo[3.1.0]hexan-3-yl)pyridin-3-yl)ethyl)-1H-pyrazol-4-yl)pyridazine-4-carboxamide]	14.2	5260
Cc1ncc(-c2c(OC(F)F)ccc(Cl)c2F)nc1C(=O)Nc1cnn(C(C)c2cnc(N3C[C@H]4C[C@H]4C3=O)c(C)n2)c1 (single isomer, unassigned) [Example 123, 6-(3-Chloro-6-(difluoromethoxy)-2-fluorophenyl)-3-methyl-N-(1-((S or R)-1-(6-methyl-5-((1R,5S)-2-oxo-3-azabicyclo[3.1.0]hexan-3-yl)pyrazin-2-yl)ethyl)-1H-pyrazol-4-yl)pyrazine-2-carboxamide]	1	364
Cc1ncc(-c2c(C(F)F)ccc(Cl)c2F)nc1C(=O)Nc1cnn(C(C)c2cnc(N3C[C@H]4C[C@H]4C3=O)c(F)c2C)c1 (single isomer, unassigned) [Example 127, 6-(3-Chloro-6-(difluoromethyl)-2-fluorophenyl)-N-(1-((S or i)-1-(5-fluoro-4-methyl-6-((1R,5S)-2-oxo-3-azabicyclo[3.1.0]hexan-3-yl)pyridin-3-yl)ethyl)-1H-pyrazol-4-yl)-3-methylpyrazine-2-carboxamide]	0.5	596
Cc1ncc(-c2c(C(F)F)ccc(Cl)c2F)nc1C(=O)Nc1cnn(C(C)c2cnc(N3C[C@H]4C[C@H]4C3=O)c(F)c2C)c1 (single isomer, unassigned) [Example 128, 6-(3-Chloro-6-(difluoromethyl)-2-fluorophenyl)-N-(1-((R or S)-1-(5-fluoro-4-methyl-6-((1R,5S)-2-oxo-3-azabicyclo[3.1.0]hexan-3-yl)pyridin-3-yl)ethyl)-1H-pyrazol-4-yl)-3-methylpyrazine-2-carboxamide]	7.1	5270
Cc1ncc(-c2c(OC(F)F)ccc(Cl)c2F)nc1C(=O)Nc1cnn(C(C)c2cnc(N3C[C@H]4C[C@H]4C3=O)c(F)c2C)c1 (single isomer, unassigned) [Example 129, 6-(3-Chloro-6-(difluoromethoxy)-2-fluorophenyl)-N-(1-((S or R)-1-(5-fluoro-4-methyl-6-((1R,5S)-2-oxo-3-azabicyclo[3.1.0]hexan-3-yl)pyridin-3-yl)ethyl)-IH-pyrazol-4-yl)-3-methylpyrazine-2-carboxamide]	4.3	3210
Cc1ncc(-c2c(OC(F)F)ccc(Cl)c2F)nc1C(=O)Nc1cnn(C(C)c2cnc(N3C[C@H]4C[C@H]4C3=O)c(F)c2C)c1 (single isomer, unassigned) [Example 130, 6-(3-Chloro-6-(difluoromethoxy)-2-fluorophenyl)-N-(1-((R or S)-1-(5-fluoro-4-methyl-6-((1R,5S)-2-oxo-3-azabicyclo[3.1.0]hexan-3-yl)pyridin-3-yl)ethyl)-1H-pyrazol-4-yl)-3-methylpyrazine-2-carboxamide]	0.8	549

The remaining compounds from weak to strong by IC50 (Human plasma kallikrein), led by results:

IC50 (Human plasma kallikrein) [nM]	IC50 (human Factor XIa) [nM]	Structure (SMILES)
1.2	449	COCc1ncc(-c2c(C(F)F)ccc(Cl)c2F)nc1C(=O)Nc1cnn(C(C)c2cnc(N3C[C@H]4C[C@H]4C3=O)c(C)n2)c1 (single isomer, unassigned) [Example 125, 6-(3-Chloro-6-(difluoromethyl)-2-fluorophenyl)-3-(methoxymethyl)-N-(1-((S or R)-1-(6-methyl-5-((1R,5S)-2-oxo-3-azabicyclo[3.1.0]hexan-3-yl)pyrazin-2-yl)ethyl)-1H-pyrazol-4-yl)pyrazine-2-carboxamide]
0.6	963	Cc1ncc(-c2c(OC(F)F)ccc(Cl)c2F)nc1C(=O)Nc1cnn(C(C)c2cnc(N3C[C@H]4C[C@H]4C3=O)c(C)n2)c1 (single isomer, unassigned) [Example 124, 6-(3-Chloro-6-(difluoromethoxy)-2-fluorophenyl)-3-methyl-N-(1-((R or S)-1-(6-methyl-5-((1R,5S)-2-oxo-3-azabicyclo[3.1.0]hexan-3-yl)pyrazin-2-yl)ethyl)-1H-pyrazol-4-yl)pyrazine-2-carboxamide]
0.6	139	Cc1cc(C(C)n2cc(NC(=O)c3nc(-c4c(OC(F)F)ccc(Cl)c4F)cnc3C)cn2)cnc1N1C[C@H]2C[C@H]2C1=O (single isomer, unassigned) [Example 132, 6-(3-Chloro-6-(difluoromethoxy)-2-fluorophenyl)-3-methyl-N-(1-((R or S)-1-(5-methyl-6-((1R,5S)-2-oxo-3-azabicyclo[3.1.0]hexan-3-yl)pyridin-3-yl)ethyl)-1H-pyrazol-4-yl)pyrazine-2-carboxamide]
0.5	149	Cc1cc(C(C)n2cc(NC(=O)c3nc(-c4c(C(F)F)ccc(Cl)c4F)cnc3C)cn2)cnc1N1C[C@H]2C[C@H]2C1=O (single isomer, unassigned) [Example 120, 6-(3-Chloro-6-(difluoromethyl)-2-fluorophenyl)-3-methyl-N-(1-((R or S)-1-(5-methyl-6-((1R,5S)-2-oxo-3-azabicyclo[3.1.0]hexan-3-yl)pyridin-3-yl)ethyl)-1H-pyrazol-4-yl)pyrazine-2-carboxamide]
0.5	545	Cc1cc(C(C)n2cc(NC(=O)c3nc(-c4c(OC(F)F)ccc(Cl)c4F)cnc3C)cn2)cnc1N1C[C@H]2C[C@H]2C1=O (single isomer, unassigned) [Example 131, 6-(3-Chloro-6-(difluoromethoxy)-2-fluorophenyl)-3-methyl-N-(1-((S or R)-1-(5-methyl-6-((1R,5S)-2-oxo-3-azabicyclo[3.1.0]hexan-3-yl)pyridin-3-yl)ethyl)-1H-pyrazol-4-yl)pyrazine-2-carboxamide]

Reference: patent US20230286958A1, “PLASMA KALLIKREIN INHIBITORS” (Merck Sharp & Dohme LLC, priority 2020, published 2023)
